# Values quoted from earlier work in US7956090B2, “Composition and method for increasing the anabolic state of muscle cells” (priority 2007, dated 2011).
# How the values were obtained:
# [1] = about 1.5 g daily after intense exercise for 42 days
# [2] = condensation and cyclization upon dissolution in water
stability in aqueous solution [2],SMILES,delayed onset muscle soreness [1],total lean soft tissue mass [1]
,"CC(C)CC(O)C(=O)O (stereo not drawn) [HICA, 2-hydroxy-4-methylvaleric acid]",little to no delayed onset muscle soreness,statistically significant increase
poor stability,"CC(=O)C(=O)O [pyruvate, pyruvic acid]",,
